pEC50: −log10 of the molar value. Entries after “also recorded” stand apart in the source; their conditions may differ.
Legend:
LDLR [1] = assay: qPCR LDLR expression in HepG2 cells; type: cell-based, human; details: for induction of LDLR expression in combination with simvastatin (in words): overnight simvastatin, then compound
TRIB1 [2] = assay: qPCR TRIB1 expression in HepG2 cells; type: cell-based; details: Homo sapiens, HepG2; induction of TRIB1 and LDLR transcript levels; read-out: half maximal effective concentration (EC50)
PCSK9 [3] = assay: qPCR PCSK9 expression in HepG2 cells; type: cell-based, human; details: for PCSK9 expression (in words): qPCR; for fold induction at 10 µM: Homo sapiens, 20 h, HepG2 cells
Method: (§1) In the primary screen, HepG2 cells were plated in 384-well plates at 2000 cells per well and incubated for 20 hours with each compound in duplicate at 10 microM concentration. Then RNA was isolated, reverse-transcribed to cDNA, and stored at −80° C. Expression levels of TRIB1 and other target genes, such as SORT1 and PCSK9, were determined by quantitative PCR. Relative gene expression level was normalized to expression of the housekeeping gene, GAPDH. A “hit” was defined as those compounds that caused a greater than 2-fold increase in relative target gene expression when normalized to GAPDH expression, compared to DMSO-treated control. Using these criteria, 130 hits were identified for TRIB1 (0.8% hit rate).
(§2) Further analysis of the expression levels of various proteins in the cholesterol and triglyceride biosynthetic pathways in response to TRIB1 inducer treatment was performed. In particular, transcript levels of additional lipoprotein metabolism pathway proteins SCAP, SREBF1, SREBF2, HMGCR, HMGCS, SCD1, FASN and MTTP were assessed by qPCR, along with TRIB1, LDLR, and PCSK9. The gene expression profile for the same subset of genes was also assessed after treatment with the statin atorvastatin (Lipitor), commonly used in therapy for hypercholesterolemia and other cardiovascular diseases.
(§3) The kinetics of the modulation of TRIB1, LDLR, PCSK9 and MTTP gene expression after treatment by select TRIB1 inducer compounds was monitored by qPCR analysis (FIG. 4). RNA was extracted from cells at various timepoints over 28 hours of treatment (0, 2, 4, 6, 8, 24, 28 hours). Specifically, compounds 12a and 14a induced transcriptional responses over time similar to those produced by berberine, a plant alkaloid used in Chinese medicine. […] Both compound 12a and compound 14a induce TRIB1 and LDLR and repress PCSK9 and MTTP expression with similar kinetics and similar fold change as berberine Importantly, both compounds induce these gene expression changes at much lower concentrations than berberine. […] This increased potency indicates the potential therapeutic efficacy of such compounds for treatment of cardiovascular diseases, particularly hypercholesterolemia and related conditions.

LDLR [4] = assay: qPCR LDLR expression in HepG2 cells; type: cell-based, human; details: for LDLR expression (in words): HepG2, qPCR; for qPCR LDLR: HepG2 cells
Method: as §1, §2, §3

MTTP = assay: qPCR MTTP expression in HepG2 cells; type: cell-based, human; details: 28 hour time course
Method: as §2
The kinetics of the modulation of TRIB1, LDLR, PCSK9 and MTTP gene expression after treatment by select TRIB1 inducer compounds was monitored by qPCR analysis (FIG. 4). RNA was extracted from cells at various timepoints over 28 hours of treatment (0, 2, 4, 6, 8, 24, 28 hours). Specifically, compounds 12a and 14a induced transcriptional responses over time similar to those produced by berberine, a plant alkaloid used in Chinese medicine. […] Both compound 12a and compound 14a induce TRIB1 and LDLR and repress PCSK9 and MTTP expression with similar kinetics and similar fold change as berberine Importantly, both compounds induce these gene expression changes at much lower concentrations than berberine. […]

HepG2 cells [5] = assay: BODIPY-FL LDL uptake in HepG2 cells (high content microscopy); type: cell-based, human; details: treated 20 hours; BODIPY-FL LDL uptake monitored 5 hours
Method: TRIB1 inducers increase the rate of LDL uptake. HepG2 cells grown under standard culture conditions (10% FBS) were treated for 20 hours with compounds 2a, 14a and 12a at indicated concentrations and the uptake of BODIPY-FL conjugated LDL particles was monitored for 5 hours using high content microscopy. To control for regulation of LDL uptake by cholesterol, cells were grown in media depleted for (0.5% LPDS—lipoprotein deficient serum) or supplemented with cholesterol (0.5% LPDS plus cholesterol ([…] cholesterol and […] 25-OH cholesterol)).

PCSK9 [6] = assay: ELISA of secreted PCSK9 protein in HepG2 cells; type: cell-based, human; details: for ELISA PCSK9: HepG2 cells
Method: (§4) Additional secondary assays were performed in HepG2 cells to further characterize the cellular response to treatment with select confirmed TRIB1 inducer hits. The results of the ELISA, CTG, and qPCR secondary assays are summarized in Table B. For all secondary assays, the experiments were performed using powders of freshly purified compounds.
(§5) To further characterize the relationship of TRIB1 induction and PCSK9 reduction, ELISAs were performed to measure the levels of secreted ApoB, PCSK9, and LDLR. […] As predicted treatment with TRIB1 inducer hits caused a decrease in ApoB levels detected by ELISA. In parallel effort, 3200 BIOA and NATP compounds were screened for PCSK9 expression inhibitors. Hits were defined as inducing greater than 3-fold downregulation of PCSK9, and 3.8% of the screened compounds were confirmed as hits. […] In further experiments, a strong correlation was confirmed between TRIB1 induction and PCSK9 repression in DOS Collection hits. ELISA analysis confirmed that treatment with TRIB1 inducers reduced the PCSK9 protein levels. LDLR protein levels were also analyzed by ELISA to determine whether compounds that modulate both TRIB1 and PCSK9 had any effect on LDLR protein levels.

ApoB = assay: ELISA of secreted ApoB in HepG2 cells; type: cell-based, human; details: for ELISA ApoB: HepG2 cells
Method: as §4, §5

TRIB1 [7] = assay: qPCR TRIB1 expression in HepG2 cells; type: cell-based, human; details: for TRIB1 expression (in words): qPCR; for fold induction at 10 µM: Homo sapiens, 20 h, HepG2 cells
Method: as §1, §2, §3

APOC3 = assay: Transcriptional profiling of APOC3 gene in HepG2 cells; type: cell-based, human; details: 10 μM, 24 hours
From the text: Expression of APOC3 is associated with increased levels of triglycerides in plasma and carriers of APOC3 gene null mutation have low levels of triglycerides and are protected from cardiovascular disease (Pollin et al., Science, 322:1702, 2008).

FASN = assay: qPCR FASN transcript level in HepG2 cells; type: cell-based; details: Homo sapiens, 20 h
Method: as §1, §2

SCAP = assay: qPCR SCAP transcript level in HepG2 cells; type: cell-based, human; set-up: key: A: Increase <2-fold; B: Increase >2-fold; X: Decrease <2-fold; Y: Decrease >2-fold; No significant change
Method: as §1, §2

LDLR [8] = assay: ELISA of LDLR protein in HepG2 cells; type: cell-based, human; details: for ELISA LDLR: HepG2 cells
Method: as §4, §5

SREBF2 = assay: qPCR SREBF2 transcript level in HepG2 cells; type: cell-based, human; set-up: key: A: Increase <2-fold; B: Increase >2-fold; X: Decrease <2-fold; Y: Decrease >2-fold; No significant change
Method: as §1, §2

SCD1 = assay: qPCR SCD1 transcript level in HepG2 cells; type: cell-based; details: Homo sapiens, 20 h
Method: as §1, §2

SREBF1 = assay: qPCR SREBF1 transcript level in HepG2 cells; type: cell-based, human; set-up: key: A: Increase <2-fold; B: Increase >2-fold; X: Decrease <2-fold; Y: Decrease >2-fold; No significant change
Method: as §1, §2

HMGCR = assay: qPCR HMGCR transcript level in HepG2 cells; type: cell-based, human
Method: as §1, §2

HepG2 cells [9] = assay: Cell Titer Glo (CTG) cell viability assay; type: cell-based, human; set-up: key: A: Increase <2-fold; B: Increase >2-fold; X: Decrease <2-fold; Y: Decrease >2-fold; No significant change; details: cell viability (ATP)
Method: Cell viability was determined using a Cell Titer Glo (CTG) assay ([…]) after treatment with TRIB1 inducer compounds. In this assay, the number of viable cells in culture is based on quantitation of ATP, which indicates metabolically active cells. Addition of the reagent results in cell lysis and generation of a luminescent signal proportional to the amount of ATP present, which is directly proportional to the number of viable, metabolically active cells present in culture. Most TRIB1 inducer compounds had no significant effect on cell viability.

HMGCS = assay: qPCR HMGCS transcript level in HepG2 cells; type: cell-based; details: Homo sapiens, 20 h
Method: as §1, §2

[10] = at the maximal dose tested, HepG2

CN1C(=O)c2cc(NC(=O)c3ccc(C(F)(F)F)cc3)ccc2OC[C@@H]2O[C@H](CC(=O)NC3Cc4ccccc4C3)CC[C@@H]21 [Compound 14a]
LDLR signal over the non-depleted control (LDLR [1]; 2.5 μM, 0.5% LPDS, 24 h): 9 fold
induction of LDLR expression in combination with simvastatin (in words) (LDLR [1]): additive effect
pEC50 (TRIB1 [2]): > 6.00
decrease of PCSK9 mRNA below the level induced by cholesterol starvation (PCSK9 [3]; 2.5 μM, 0.5% LPDS, 24 h): 3.8 fold
PCSK9 expression (in words) (PCSK9 [3]; HepG2): repress; also recorded: strongly reduced
expression of PCSK9 stimulated by pretreatment with atorvastatin (in words) (PCSK9 [3]): potently reduced
LDLR expression (in words) (LDLR [4]): induce; also recorded: robustly induced
EC50 (LDLR [4]; Homo sapiens, HepG2, 6 h, read-out: qPCR 6Hr (EC50 uM) LDLR up-regulation): 0.51 to 1 µM
MTTP expression (in words) (MTTP): repress
rate of LDL uptake (in words) (HepG2 cells [5]): robust increase
EC50 (PCSK9 [6]; Homo sapiens, HepG2, 24 h, read-out: ELISA 24 Hr (EC50 uM) PCSK9 decrease): 0.51 to 1 µM
EC50 (ApoB; Homo sapiens, HepG2, 24 h, read-out: ELISA 24 Hr (EC50 uM) ApoB decrease): 1.1 to 2 µM
TRIB1 expression (in words) (TRIB1 [7]; HepG2): induce; also recorded: robustly induced
potency relative to berberine (TRIB1 [7]; TRIB1, LDLR, PCSK9 and MTTP gene expression changes, HepG2): 10 fold

CN1C(=O)c2cc(NC(=O)c3ccc(C(F)(F)F)cc3)ccc2OC[C@@H]2O[C@@H](CC(=O)NC3Cc4ccccc4C3)CC[C@@H]21 [Compound 2a]
expression of APOC3 gene (in words) (APOC3): down regulates
fold induction at 10 µM (FASN): > 2
qPCR SCAP (SCAP): N
increase of the LDL receptor protein in the cell (LDLR [8]; HepG2): 3 fold
ELISA LDLR (LDLR [8]): B (Increase >2-fold)
induction of LDLR expression in combination with simvastatin (in words) (LDLR [1]): additive effect
qPCR SREBF2 (SREBF2): N
PCSK9 expression (in words) (PCSK9 [3]; HepG2): strongly reduced
fold induction at 10 µM (PCSK9 [3]): > 2
inhibition of expression of PCSK9 mRNA (PCSK9 [3]; [10]): 70%
expression of PCSK9 stimulated by pretreatment with atorvastatin (in words) (PCSK9 [3]): potently reduced
LDLR expression (in words) (LDLR [4]): induction of LDLR expression; also recorded: robustly induced
qPCR LDLR (LDLR [4]): B (Increase >2-fold)
fold induction at 10 µM (SCD1): > 2
rate of LDL uptake (in words) (HepG2 cells [5]): robust increase
qPCR SREBF1 (SREBF1): N
ELISA PCSK9 (PCSK9 [6]): Y (Decrease >2-fold)
inhibition of secretion of PCSK9 protein into the media (PCSK9 [6]; [10]): 70%
qPCR HMGCR (HMGCR): Y (Decrease >2-fold)
secretion of apoB into the media / ApoB levels (in words) (ApoB; HepG2): inhibited secretion of apoB
ELISA ApoB (ApoB): Y (Decrease >2-fold)
CTG (HepG2 cells [9]): N
fold induction at 10 µM (HMGCS): > 2
TRIB1 expression (in words) (TRIB1 [7]; HepG2): robustly induced
fold induction at 10 µM (TRIB1 [7]): > 2

Cc1cc(C(=O)Nc2ccc3c(c2)C(=O)N(C)[C@H]2CC[C@@H](CC(=O)NCc4ccc(-c5ccccc5)cc4)O[C@@H]2CO3)no1 [Compound 3a]
fold induction at 10 µM (FASN): > 2
qPCR SCAP (SCAP): N
ELISA LDLR (LDLR [8]): B (Increase >2-fold)
qPCR SREBF2 (SREBF2): B (Increase >2-fold)
fold induction at 10 µM (PCSK9 [3]): > 2
qPCR LDLR (LDLR [4]): B (Increase >2-fold)
fold induction at 10 µM (SCD1): > 2
qPCR SREBF1 (SREBF1): N
ELISA PCSK9 (PCSK9 [6]): X (Decrease <2-fold)
qPCR HMGCR (HMGCR): Y (Decrease >2-fold)
ELISA ApoB (ApoB): Y (Decrease >2-fold)
CTG (HepG2 cells [9]): N
fold induction at 10 µM (HMGCS): > 2
fold induction at 10 µM (TRIB1 [7]): > 2

O=C(C[C@H]1C[C@H]2c3cc(NS(=O)(=O)c4ccc(F)cc4)ccc3O[C@H]2[C@H](CO)O1)NCc1ccc(Oc2ccccc2)cc1 [Compound 13a]
fold induction at 10 µM (FASN): < 2
qPCR SCAP (SCAP): N
ELISA LDLR (LDLR [8]): X (Decrease <2-fold)
qPCR SREBF2 (SREBF2): N
fold induction at 10 µM (PCSK9 [3]): > 2
qPCR LDLR (LDLR [4]): B (Increase >2-fold)
fold induction at 10 µM (SCD1): > 2
qPCR SREBF1 (SREBF1): N
ELISA PCSK9 (PCSK9 [6]): Y (Decrease >2-fold)
qPCR HMGCR (HMGCR): Y (Decrease >2-fold)
ELISA ApoB (ApoB): Y (Decrease >2-fold)
CTG (HepG2 cells [9]): N
fold induction at 10 µM (HMGCS): > 2
fold induction at 10 µM (TRIB1 [7]): > 2

From patent US9526720B2, “Modulators of hepatic lipoprotein metabolism” (The Broad Institute, Inc., priority 2012, dated 2016)
